Where two headings read alike, the source gives them in different places.
Legend:
[1] = system: UDP-glucose dehydrogenase; details: 100 µM compound, 0.17 mM UDP-glucose, […] NAD+
[2] = target: FhGALE (Fasciola hepatica UDP-galactose 4’-epimerase) (Fasciola hepatica, UniProt A0A3G0ZAV7); experiment: biochemical; format: biochemical; details: for Selectivity of inhibition, FhGALE versus HsGALE (in words): as judged by respective IC50 values; for IC50 range in words: under the conditions tested, summary of Table 1
HsGALE (human GALE) = target: T1, HsGALE (human GALE) (Homo sapiens, UniProt Q14376); experiment: HsGALE inhibition, coupled enzyme assay with UDP-glucose dehydrogenase; format: biochemical
T1 sequence (Q14376 1-348): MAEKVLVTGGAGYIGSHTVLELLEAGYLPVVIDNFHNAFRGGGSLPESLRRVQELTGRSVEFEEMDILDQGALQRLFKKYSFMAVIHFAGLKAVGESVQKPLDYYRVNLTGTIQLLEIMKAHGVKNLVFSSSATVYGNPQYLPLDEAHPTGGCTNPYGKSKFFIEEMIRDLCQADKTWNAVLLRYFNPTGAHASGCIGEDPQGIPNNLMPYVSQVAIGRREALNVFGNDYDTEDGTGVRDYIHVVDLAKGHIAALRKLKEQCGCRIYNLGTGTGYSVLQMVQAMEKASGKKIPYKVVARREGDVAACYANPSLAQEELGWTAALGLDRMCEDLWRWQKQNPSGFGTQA

FhGALE = FhGALE (Fasciola hepatica, UniProt A0A3G0ZAV7); format: binding; details: for Effect on melting temperature (Tm) of FhGALE: thermal scanning fluorimetry, FhGALE 3.0 µM; for Kd: read-out: apparent dissociation constant (KD,app)

SMILES	IC50 [2] [µM]	IC50 range in words [2]	IC50 (HsGALE (human GALE)) [µM]	Selectivity of inhibition, FhGALE versus HsGALE (in words) ([2]; listed as N-[(benzyloxy)carbonyl]leucyltryptophan)	IC50 ([2]; read-out: FhGALE IC50, pH 7.5) [µM]	Kd (FhGALE) [µM]	Selectivity of inhibition, FhGALE versus HsGALE (in words) ([2]; listed as 5-fluoroorotate)	Effect on rate of coupling enzyme UDP-glucose dehydrogenase [1]	Selectivity of inhibition, FhGALE versus HsGALE (in words) [2]	Effect on melting temperature (Tm) of FhGALE (FhGALE)
COc1cccc(OCC(O)CN2CCN(c3ccccc3)CC2)c1 (centres unmarked) [NSC91378]								affect the rate		
NC(=O)c1ccc[n+]([C@@H]2O[C@H](COP(=O)([O-])OP(=O)(O)OC[C@H]3O[C@@H](n4cnc5c(N)ncnc54)[C@H](O)[C@@H]3O)[C@@H](O)[C@H]2O)c1 [NAD^+]										no measurable effect
CC(C)c1nc2c([nH]1)c(=O)n(C)c(=O)n2C [NSC14303]	0.3 ± 0.11	submicromolar	0.013 ± 0.006						inhibited the human enzyme to a greater extent than the liver fluke one	

More lines, main results first:

IC50 [2] [µM]	IC50 range in words [2]	IC50 (HsGALE (human GALE)) [µM]	Selectivity of inhibition, FhGALE versus HsGALE (in words) ([2]; listed as N-[(benzyloxy)carbonyl]leucyltryptophan)	IC50 ([2]; read-out: FhGALE IC50, pH 7.5) [µM]	Kd (FhGALE) [µM]	Selectivity of inhibition, FhGALE versus HsGALE (in words) ([2]; listed as 5-fluoroorotate)	SMILES	Effect on rate of coupling enzyme UDP-glucose dehydrogenase [1]	Selectivity of inhibition, FhGALE versus HsGALE (in words) [2]	Effect on melting temperature (Tm) of FhGALE (FhGALE)
0.00011 ± 0.00012	sub-nanomolar	0.0061 ± 0.0092					CC1(C)OC2C(CO)OC(n3cnc4c(=S)nc[nH]c43)C2O1 (centres unmarked) [NSC27305, 9-[6-(hydroxymethyl)-2,2-dimethyltetrahydrofuro[3,4-d][1,3]dioxol-4-yl]-3,9-dihydro-6H-purine-6-thione]		inhibited both enzymes to approximately the same extent	
260		9.5 ± 8.2					Cn1c(=O)c2[nH]c(COc3ccc(C(C)(C)C)cc3)nc2n(C)c1=O [NSC36525, 8-[(4-tert-butylphenoxy)methyl]-1,3-dimethyl-3,7-dihydro-1H-purine-2,6-dione]		inhibited the human enzyme to a greater extent than the liver fluke one	
	submicromolar		selectivity for FhGALE over HsGALE	0.1 ± 0.046	210 ± 20		CC(C)CC(NC(=O)OCc1ccccc1)C(=O)NC(Cc1c[nH]c2ccccc12)C(=O)O (centres unmarked) [NSC335979, (3-(1H–indol-3-yl)-2-[[4-methyl-2-(phenylmethoxycarbonylamino)pentanoyl]amino]propionate)]		inhibited FhGALE several orders of magnitude more strongly than HsGALE	reducing the Tm in a concentration dependent manner
	submicromolar			0.03 ± 0.011	1900 ± 900	selectivity for FhGALE over HsGALE	O=C1NC(=O)C(F)C(C(=O)O)N1 (centres unmarked) [NSC31712, 5-fluoro-2,6-dioxohexahydropyrimidine-4-carboxylate]		inhibited FhGALE several orders of magnitude more strongly than HsGALE	reducing the Tm in a concentration dependent manner
0.061 ± 0.02	submicromolar	0.045 ± 0.023					CCOc1ccc(NC(=O)c2cc3ccccc3cc2O)cc1 [NSC50690, N-(4-ethoxyphenyl)-3-hydroxynaphthalene-2-carboxamide]		inhibited both enzymes to approximately the same extent	
